The test system of the experiment is Plasmodium falciparum. As to the kind of experiment: GSK_TCMDC: Inhibition of Plasmodium falciparum 3D7 in whole erythrocytes, using parasite LDH activity as an index of growth. The format is functional, organism-based.

`CCNC[C@H]1CCCN1CCOc1ccc(-n2cnc3cc(-c4ccc(Cl)cc4)sc3c2=O)cc1OC` returned an XC50 (Plasmodium falciparum, 3D7) of 808 nM.

Where the note is “Plasmodium falciparum, 3D7”, `CN1CC[C@@H](Oc2cc(NC(=O)Nc3ccccc3Br)ccc2Cl)C1` had an XC50 of 1100 nM. Still for that read-out and setting: under `COc1cc2nc(NCCCOC(C)C)n3nc(-c4ccccc4)nc3c2cc1OC` stands 196 nM. The same measure, in the same setting: the result for `CCCC(CNCc1cccc(OC(F)(F)C(F)F)c1)CNc1cc(=O)c2ccccc2[nH]1` (stereo not drawn) reads 595 nM; that for `CCN(CC)CCOc1ccc(C(O)(C#CC(O)(c2ccccc2)c2ccc(OCCN(CC)CC)cc2)c2ccccc2)cc1` (stereo not drawn), 1310 nM. The compound `O=C(C=C1c2ccccc2-c2ccccc21)NC1CCC(CN2CCC(c3c[nH]c4ccccc34)CC2)CC1` (stereo not drawn) displayed an XC50 of 697 nM. This compound yielded an XC50 (Plasmodium falciparum, 3D7) of 795 nM. On to `O=C(NCc1ccccc1)Nc1cccc(-c2cccc(-c3nc4cc(C(F)(F)F)ccc4[nH]3)c2)c1`, for which the XC50 (Plasmodium falciparum, 3D7) was 264 nM. Same read-out and setting: under `Cc1cc(C=C(P(=O)(OC(C)C)OC(C)C)P(=O)(OC(C)C)OC(C)C)c2ccccc2c1O` stands 1080 nM. Still for that read-out and setting: the result for `Cc1[nH]c(C)c(-c2ccc(OCc3ccccc3)cc2)c(=O)c1Br` reads 280 nM; that for `c1ccc(CCNCc2ccc(-c3cccc(-c4nc5ccccc5[nH]4)c3)cc2)nc1`, 619 nM; that for `CN1CCN(CC(=O)Nc2cccc(-c3cccc(-c4nc5cc(C(F)(F)F)ccc5[nH]4)c3)c2)CC1`, 372 nM. In turn, `CC[C@H](C)CNC(=O)c1ccnc(-c2ccc(CN3CCC(N4CCCC4)CC3)cc2)c1` returned an XC50 (Plasmodium falciparum, 3D7) of 891 nM.

Turning to `Cc1nc(N)nc(N)c1OCCCCCCOc1ccccc1`, the XC50 (Plasmodium falciparum, 3D7) amounted to 235 nM. Same read-out and setting: the result for `COc1ccc(C2CC(=O)C3=C(C2)NC(C)=C(C(=O)OC2CCCC2)C3c2cccc(O)c2)cc1OC` (stereo not drawn) reads 216 nM. On the same count and under the same terms, the result for `O=C(NC1CCCCC1)N(Cc1cccc(-c2cccc(CNC3CCCC3)c2)c1)C1CCN(Cc2ccccc2)CC1` reads 736 nM; that for `CCc1ccc(-c2cnc(N)c3cc(-c4ccnc(N)n4)ccc23)cc1`, 1350 nM; that for `COc1ccc(C2CC(=O)C3=C(C2)NC(C)=C(C(=O)OC(C)C)C3c2ccccc2F)cc1OC` (stereo not drawn), 61.6 nM. The same measure, in the same setting: the result for `CN(CCc1ccccn1)Cc1ccc(-c2ccc(-c3nc4ccccc4[nH]3)s2)cc1` reads 588 nM; that for `CCCCc1ccc(-c2ccc3[nH]c(C)c(Br)c(=O)c3c2)cc1`, 105 nM; that for `COc1cc(C2=NN(S(=O)(=O)c3c(Cl)cc(Cl)cc3Cl)CCCC2)ccc1Cl`, 291 nM. For `CCCNc1ccc2nccc(CCN3CCC(NCc4ccc5c(n4)NC(=O)CS5)CC3)c2n1`, under “Plasmodium falciparum, 3D7”, the XC50 is 720 nM.

For the setting “Plasmodium falciparum, 3D7”, `COc1ccc2c(N/N=C/c3cccc([N+](=O)[O-])c3)ccnc2c1` yielded an XC50 of 846 nM.

The compound `O=C(O[C@@H]1CN[C@H](C#Cc2cc3c(Nc4ccc5c(cnn5Cc5ccccc5)c4)ncnc3s2)C1)N1CCCC1` gave an XC50 (Plasmodium falciparum, 3D7) of 424 nM. Same read-out and setting: under `CN1CCCN(Cc2cccc(-c3ccc(NC(=O)c4cccc(Cl)c4)cc3)c2)CC1` stands 927 nM. Same read-out and setting: the result for `COCCOc1cc(C)c(C2CCN(CCCCNC(=O)c3ccc(NC(=O)c4ccc(Cl)cc4)cc3)CC2)cc1C` reads 951 nM; that for `Cn1nc(-c2cccc(CNC3CCc4ccccc43)c2)c2cnc(NC3CCCC3)nc21` (stereo not drawn), 857 nM. Still for that read-out and setting: the result for `CC(=O)Nc1ccc(OCCN(CC(C)C)c2ccc(C(F)(F)F)c(C#N)c2)c(Cl)c1` reads 308 nM; that for `CC1CCN(C(=O)CSc2nc(-c3ccc(C(C)C)cc3)no2)CC1`, 1350 nM.

For the compound `Clc1ccc2c(NCc3ccccc3)ccnc2c1`, the XC50 (Plasmodium falciparum, 3D7) was found to be 339 nM. On the same count and under the same terms, under `c1ccc(CNCc2cccc(-c3ccc(-c4nc5ccccc5[nH]4)s3)c2)cc1` stands 818 nM; under `CN(C)CC(=O)Nc1cccc(Nc2nccc(NCC(O)c3ccccc3)n2)c1` (stereo not drawn), 983 nM.

For the compound `O=S(=O)(c1cccc(F)c1)c1ccc(Nc2ncnc3cc(Br)sc23)cc1Cl`, the XC50 (Plasmodium falciparum, 3D7) was 1030 nM. On the same count and under the same terms, under `C(=Cc1ccccc1)C=NN=c1cc[nH]c2ccccc12` stands 725 nM. The compound `CNCc1ccc(-c2ccc3ccnc(N)c3c2)cc1` gave an XC50 (Plasmodium falciparum, 3D7) of 262 nM. On the same count and under the same terms, under `COc1cccc(CNC[C@@H](O)[C@H](Cc2ccccc2)NC(=O)c2cc3c4c(c2)c(C(C)C)cn4CCS(=O)(=O)N3C)c1` stands 154 nM; under `O=C(NCC1CCN(C/C=C/c2ccccc2)CC1)Nc1ccc(Oc2ccccc2)cc1`, 1040 nM. Still for that read-out and setting: under `C=C1C(C(=O)OCC)=CN(CC)c2cc(O[C@H]3CCN(C(=O)OC(C)(C)C)C3)ccc21` stands 548 nM; under `CN1CCN(C(C(=O)NCc2cc(Cl)cc(Cl)c2)c2ccc(NC(=O)Nc3ccccc3)cc2)CC1` (stereo not drawn), 692 nM; under `O=S(=O)(c1ccc(OCc2ccc(Cl)cc2)cc1)c1cc2c(cc1OCc1ccccc1)CCN(C1CCC1)CC2`, 1020 nM. Regarding `CCN1CCN(C(=O)NC(C(=O)N2CCCC(COc3ccc(Cc4ccccc4)cc3)C2)c2cccs2)C(=O)C1=O` (stereo not drawn), the XC50 (Plasmodium falciparum, 3D7) was 479 nM. The same measure, in the same setting: under `CN(C)CCOc1cccc(-c2cnc(N)c(-c3nc4cc(S(C)(=O)=O)ccc4[nH]3)c2)c1` stands 950 nM; under `Nc1nc(N)c2c(ccc3c2ccn3Cc2ccccn2)n1`, 8.31 nM; under `CCCn1c(O)nnc1SCC(=O)Nc1cc(C(F)(F)F)ccc1Cl`, 222 nM. Regarding `CCCCCCCCN1CCCN(C(=O)c2cccc(NC(=O)Nc3ccc4ccccc4c3)c2)CC1`, for the setting “Plasmodium falciparum, 3D7”, the XC50 was 762 nM. On the same count and under the same terms, under `O=C1Nc2cccc3c2C1(CCCN1CCC(c2c[nH]c4cc(C(F)(F)F)ccc24)CC1)CCC3` (stereo not drawn) stands 961 nM. Same read-out and setting: under `Cn1c(Sc2ncnc3sccc23)nc2ccccc21` stands 191 nM; under `Oc1ccc2[nH]c(-c3cccs3)nc2c1CN1CCC(O)(c2ccccc2)CC1`, 782 nM. Same read-out and setting: under `COc1ccc(CCCN2C(=O)C(c3ccccc3)(c3ccccc3)N=C2N)cc1` stands 1050 nM. With `Cc1cccc(C)c1/N=C1\NC(=S)N(c2cccc(Cl)c2)C12CCC(C(C)(C)C)CC2` (stereo not drawn), the XC50 (Plasmodium falciparum, 3D7) came to 760 nM. The same measure, in the same setting: under `CCCCC(CC)NC(=O)[C@H]1CNCCN1C(=O)CCCc1ccccc1` (stereo partly drawn) stands 885 nM. Still for that read-out and setting: under `O=[N+]([O-])c1cc(C(c2ccc(O)c([N+](=O)[O-])c2)C(Cl)(Cl)Cl)ccc1O` stands 734 nM; under `CCOC(=O)c1ccc(NC(=O)N[C@@H](Cc2ccc(O)cc2)C(=O)NC2CCN(Cc3ccc4c(c3)OCO4)CC2)cc1`, 1060 nM; under `CC(C)CCN1CCCN(Cc2ccc(C(=O)Nc3ccc(Cl)cc3)cc2)CC1`, 796 nM. The same measure, in the same setting: under `COc1ccc2nccc(N3CCC(SCCNS(=O)(=O)c4ccc5c(c4)NC(=O)CS5)C3)c2n1` (stereo not drawn) stands 1580 nM. `CN(CCN)Cc1cccc(-c2cccc(-c3nc4cc(F)ccc4[nH]3)c2)c1` displayed an XC50 (Plasmodium falciparum, 3D7) of 785 nM. Still for that read-out and setting: under `Nc1c2c(nc3ccc(NC(=O)CCCCCc4ccccc4)cc13)CCCC2` stands 438 nM; under `O=C(Nc1cccc(CN2CCN(C(=O)c3cccc(Cl)c3)CC2)c1)c1cccs1`, 184 nM. The same measure, in the same setting: the result for `Cc1cccc2nc(-c3ccc(-c4cccc(CNCCc5ccncc5)c4)cc3)[nH]c12` reads 204 nM. On the same count and under the same terms, under `Cc1cccc(C(=O)Nc2ccnc(N(C)CCCN(C)Cc3cccc(C#N)c3)c2)c1` stands 1320 nM. Take `CC(N)(Cc1ccc(O)cc1)c1nnn[nH]1` (stereo not drawn): the XC50 (Plasmodium falciparum, 3D7) turned out to be 969 nM.

For the setting “Plasmodium falciparum, 3D7”, `Fc1ccc(-c2cc3ncnc(N4CCN(CCN5CCCC5)CC4)c3s2)cc1` showed an XC50 of 740 nM.

As to `Cc1cc(N(C)C)nc(Nc2ccc(NC(=O)c3ccc(Br)o3)cc2)n1`, the XC50 (Plasmodium falciparum, 3D7) was found to be 1050 nM. For the setting “Plasmodium falciparum, 3D7”, `Cc1cc(Nc2ccc(C)c(C)c2)n2nc(C)nc2n1` displayed an XC50 of 599 nM. Still for that read-out and setting: the result for `Cc1cccc(-c2nc3cc(NC(=O)c4ccc([N+](=O)[O-])o4)ccc3o2)c1` reads 876 nM; that for `O=C(Nc1ccnc2ccccc12)NC1CCN(CCc2ccccc2)CC1`, 364 nM. Still for that read-out and setting: under `O=S(=O)(NCCN1CCCC1)c1ccc(-c2cccc(CNC3Cc4ccccc4C3)c2)s1` stands 746 nM; under `CN(C)CCOc1ccc2c(c1)OC(C)(C)C=C2c1cccc2ccccc12`, 785 nM; under `CCCCN1CCN(CCCNc2c3ccccc3nc3ccccc23)CC1`, 512 nM. The same measure, in the same setting: the result for `COC(=O)c1ccc(-c2ccc(-c3cccnc3)cc2C)cc1` reads 662 nM. In turn, `Cc1noc(-c2ccc3c(c2)CCN(CCC2CCC(NC(=O)/C=C/c4ccc(F)cc4)CC2)CC3)n1` (stereo not drawn) registered an XC50 (Plasmodium falciparum, 3D7) of 1030 nM. Still for that read-out and setting: the result for `Cc1cc(C(=O)NC2CCN(Cc3ccccc3)CC2)ccc1-c1nc2ccc(C(F)(F)F)cc2[nH]1` reads 891 nM; that for `CS(=O)(=O)Cc1ccc(Nc2nccc(-c3c(-c4cccc(C(=O)Nc5c(F)cccc5F)c4)nn4ccccc34)n2)cc1`, 532 nM; that for `COc1ccc(Nc2nccc(N3CCC(NC(=O)Nc4cccc(C(C)=O)c4)C3)n2)cc1` (stereo not drawn), 821 nM. Under “Plasmodium falciparum, 3D7”, `O=C(Nc1ccc2c(c1)CCN2C1CCN(Cc2csc3ccccc23)C1)c1ccco1` (stereo not drawn) showed an XC50 of 322 nM. On the same count and under the same terms, under `COc1ccc2nc(N)nc(C)c2c1` stands 927 nM; under `CC(C)c1sc(-c2ccc(C(C)(C)C)cc2)nc1C(=O)NCCCN1CCCC1=O`, 672 nM; under `COC(=O)c1cccc(CNCc2cccc(-c3ccc(-c4nc5ccccc5[nH]4)cc3)c2)c1`, 354 nM. Same read-out and setting: the result for `CC(=O)Nc1cccc(C(=O)Nc2ccc(-c3cccc(-c4nc5cc(F)ccc5[nH]4)c3)cc2)c1` reads 633 nM.

As for `CS(=O)(=O)Nc1cccc(-c2cnc3[nH]cc(-c4cc(N)cc(C(=O)O)c4)c3c2)c1`, the XC50 (Plasmodium falciparum, 3D7) came to 1080 nM. Same read-out and setting: under `Cc1ccc(C)c(Cn2ccc3nc(Cl)nc(Cl)c32)c1` stands 911 nM. On the same count and under the same terms, the result for `COc1ccc(NC(=O)Nc2ccc(-c3ccncc3)c(Cl)c2)cc1N1CCN(C)CC1` reads 755 nM; that for `O=C(O)Cc1ccc(-c2c[nH]c3ncc(-c4cccc5ncccc45)cc23)cc1`, 847 nM. Still for that read-out and setting: the result for `Cc1nc(N)nc(N)c1OCCCOc1ccccc1Br` reads 4.1 nM; that for `CCOC(=O)c1ccc(NC(=O)Nc2ccc(-c3cccc(-c4nc5cc(F)ccc5[nH]4)c3)cc2)cc1`, 122 nM; that for `Cc1c(CC(=O)NCCC2CCN(CCCCCNC(=O)/C=C/c3ccc(Cl)c(Cl)c3)CC2)sc2ccc(Cl)cc12`, 880 nM.

Take `CCCC(C)Nc1nc(C)cc(N[C@@H](CC(C)C)C(=O)Nc2ccc(OC)cc2)n1` (stereo partly drawn): under “Plasmodium falciparum, 3D7”, the XC50 amounted to 866 nM. The same measure, in the same setting: the result for `Cc1cc(N[C@@H](Cc2ccccc2)C(=O)NC2CCCC2)nc(NCCc2cccs2)n1` reads 1400 nM.
